Results reported in paper PMC7216583 (Parasites & Vectors, 2020).
Read-outs that look alike come from different tables or passages of the source.

Assays:
JAK2 = tested on: JAK2; design: method as in S-inhibitor catalog; settings: in HEL cells; vendor brief description; ref S-inhibitor catalog; cited from earlier work
[1] = tested on: Toxoplasma gondii RH-2F tachyzoites; experiment: microbe, parasite or virus in culture; settings: 72 h
Stat3 = tested on: Stat3; design: method as in S-inhibitor catalog; settings: in HEL cells; vendor brief description; ref S-inhibitor catalog; cited from earlier work
cyclin A/CDK2 = tested on: cyclin A/CDK2; design: method as in S-inhibitor catalog; settings: vendor brief description; ref S-inhibitor catalog; cited from earlier work
HER2 = settings: vendor brief description; ref S-inhibitor catalog; cited from earlier work
EGFR = tested on: EGFR; design: method as in S-inhibitor catalog; settings: vendor brief description; ref S-inhibitor catalog; cited from earlier work
Cathepsin S = tested on: Cathepsin S; design: method as in vendor brief description; settings: ref vendor brief description; cited from earlier work
Cathepsin B = tested on: Cathepsin B; design: method as in vendor brief description; settings: ref vendor brief description; cited from earlier work
Cathepsin L2 = tested on: Cathepsin L2; design: method as in vendor brief description; settings: ref vendor brief description; cited from earlier work
Cathepsin K = tested on: Cathepsin K; design: method as in vendor brief description; settings: ref vendor brief description; cited from earlier work
Cathepsin L = tested on: Cathepsin L; design: method as in vendor brief description; settings: ref vendor brief description; cited from earlier work
FAK = tested on: FAK; design: method as in vendor brief description; settings: ref vendor brief description; cited from earlier work
IGF-1R = tested on: IGF-1R; design: method as in vendor brief description; settings: ref vendor brief description; cited from earlier work
rhCETP = tested on: rhCETP; design: method as in S-inhibitor catalog; settings: vendor brief description; ref S-inhibitor catalog; cited from earlier work
PI3K/mTOR = tested on: PI3K/mTOR; design: method as in S-inhibitor catalog; settings: vendor brief description; ref S-inhibitor catalog; read-out: IC50, dual PI3K/mTOR inhibitor; cited from earlier work
cIAP1 = biological target: cIAP1; design: method as in S-inhibitor catalog; settings: vendor brief description; ref S-inhibitor catalog; cited from earlier work
cIAP2 = biological target: cIAP2; design: method as in S-inhibitor catalog; settings: vendor brief description; ref S-inhibitor catalog; cited from earlier work
XIAP = biological target: XIAP; design: method as in S-inhibitor catalog; settings: vendor brief description; ref S-inhibitor catalog; cited from earlier work
PKCγ = tested on: PKCγ; design: method as in library vendor description; settings: ref library vendor description; cited from earlier work
PKCβ = tested on: PKCβ; design: method as in library vendor description; settings: ref library vendor description; cited from earlier work
PKCα = tested on: PKCα; design: method as in library vendor description; settings: ref library vendor description; cited from earlier work
PKCε = tested on: PKCε; design: method as in library vendor description; settings: ref library vendor description; cited from earlier work
NaV1.8 channel = tested on: NaV1.8 channel; design: method as in S-inhibitor catalog; settings: vendor brief description; ref S-inhibitor catalog; cited from earlier work
PDGFRβ = tested on: PDGFRβ; design: method as in S-inhibitor catalog; settings: vendor brief description; ref S-inhibitor catalog; cited from earlier work
Ron = tested on: Ron; design: method as in S-inhibitor catalog; settings: vendor brief description; ref S-inhibitor catalog; cited from earlier work
in vitro = settings: human, Host viability (%) mean
c-Met = tested on: c-Met; design: method as in S-inhibitor catalog; settings: vendor brief description; ref S-inhibitor catalog; cited from earlier work
FGFR3 = tested on: FGFR3; design: method as in S-inhibitor catalog; settings: vendor brief description; ref S-inhibitor catalog; cited from earlier work
Flt1 = tested on: Flt1; design: method as in S-inhibitor catalog; settings: vendor brief description; ref S-inhibitor catalog; cited from earlier work
Mer = tested on: Mer; design: method as in S-inhibitor catalog; settings: vendor brief description; ref S-inhibitor catalog; cited from earlier work
FGFR1 = settings: read-out: IC50, FGFR1; vendor brief description; ref S-inhibitor catalog; cited from earlier work
FGFR2 = tested on: FGFR2; design: method as in S-inhibitor catalog; settings: vendor brief description; ref S-inhibitor catalog; cited from earlier work
Flt3 = tested on: Flt3; design: method as in S-inhibitor catalog; settings: vendor brief description; ref S-inhibitor catalog; cited from earlier work
CETP = tested on: CETP; design: method as in S-inhibitor catalog; settings: vendor brief description; ref S-inhibitor catalog; cited from earlier work
[2] = read-out: Parasite inhibition (%) mean, preliminary screen of compound library, mean

## C[C@H](NC(=O)/C(C#N)=C/c1cccc(Br)n1)c1ccccc1 [WP1066]
JAK2
  IC50: 2300 nM
[1]; [2]
  inhibition of growth at 5 µM: -8.7%
Stat3
  IC50: 2430 nM

## CNC(=O)c1nn(C)c2c1C(C)(C)Cc1cnc(Nc3ccc(N4CCN(C)CC4)cc3)nc1-2 [Milciclib (PHA-848125)]
[1]; [2]
  inhibition of growth at 5 µM: 16.4%
Cyclin A/CDK2
  IC50: 45 nM

## CC(C)(O)CC(=O)NCCn1ccc2ncnc(Nc3ccc(Oc4cccc(C(F)(F)F)c4)c(Cl)c3)c21 [TAK-285]
[1]; [2]
  inhibition of growth at 5 µM: -12.2%
HER2
  IC50: 17 nM
EGFR
  IC50: […]

## Cn1nc(C(C)(C)C)cc1C(=O)N[C@@H](Cc1cccc(Cl)c1)C(=O)NCC#N [Cathepsin Inhibitor 1]
[1]; [2]
  inhibition of growth at 5 µM: 21.5%
Cathepsin S
  pIC50 Cathepsin S: 6.0
Cathepsin B
  pIC50 Cathepsin B: 5.2
Cathepsin L2
  pIC50 Cathepsin L2: 6.7
Cathepsin K
  pIC50 Cathepsin K: 5.5
Cathepsin L
  pIC50 Cathepsin L: 7.9

## CNC(=O)c1ccccc1Nc1nc(Nc2ccc(N3CCOCC3)cc2OC)ncc1Cl [NVP-TAE226]
[1]; [2]
  inhibition of growth at 5 µM: 66.8%
FAK
  IC50: 5.5 nM
IGF-1R
  IC50: […]

## CCC(CC)CC1(C(=O)Nc2ccccc2SC(=O)C(C)C)CCCCC1 [Dalcetrapib (JTT-705)]
[1]; [2]
  inhibition of growth at 5 µM: 0.4%
rhCETP
  IC50: 200 nM

## COc1ccc(-c2ccc3ncc4c(c3c2)n(-c2ccc(N3CCNCC3)c(C(F)(F)F)c2)c(=O)n4C)cn1 [NVP-BGT226]
[1]; [2]
  inhibition of growth at 5 µM: 6.1%
PI3K/mTOR
  IC50: 1 nM

## CN[C@@H](C)C(=O)N[C@H]1CN(C(=O)CC(C)C)CC[C@H]2CC[C@@H](C(=O)NC(c3ccccc3)c3ccccc3)N2C1=O [AT-406]
[1]; [2]
  inhibition of growth at 5 µM: 33.5%
cIAP1
  Ki: 1.9 nM
cIAP2
  Ki: 5.1 nM
XIAP
  Ki: 66.4 nM

## Cn1cc(C2=C(c3cn(C4CCN(Cc5ccccn5)CC4)c4ccccc34)C(=O)NC2=O)c2ccccc21 [Enzastaurin (LY317615)]
PKCγ
  IC50: […]
[1]; read-out: Parasite inhibition (%) mean, preliminary screen, mean
  inhibition of growth at 5 µM: 11.4%
PKCβ
  IC50: 6 nM
PKCα
  IC50: […]
PKCε
  IC50: […]

## COc1cc(NC(=O)c2ccc(-c3ccc(Cl)cc3)o2)cc(OC)c1 [A-803467]
NaV1.8 channel
  IC50: 8 nM
[1]; [2]
  inhibition of growth at 5 µM: 0.3%

## CN(C[C@@H]1COCCO1)S(=O)(=O)Nc1ccc2ccc3ncc(-c4cnn(C)c4)cc3c(=O)c2c1 [MK-2461]
PDGFRβ
  IC50: 22 nM
Ron
  IC50: 7 nM
[1]; [2]
  inhibition of growth at 5 µM: 79.8%
In vitro
  viability at 72 h: 60.3%
c-Met
  IC50: 2.5 nM
FGFR3
  IC50: 50 nM
Flt1
  IC50: 10 nM
Mer
  IC50: 24 nM
FGFR1
  IC50: 65 nM
FGFR2
  IC50: 39 nM
Flt3
  IC50: 22 nM

## CCOC(=O)N1c2ccc(C(F)(F)F)cc2[C@H](N(Cc2cc(C(F)(F)F)cc(C(F)(F)F)c2)C(=O)OC)C[C@H]1CC [Torcetrapib (CP-529414)]
[1]; [2]
  inhibition of growth at 5 µM: 22.1%
CETP
  IC50: 37 nM
